According to patent publication US11484591B2, “Chemoprevention using controlled-release formulations of anti-interleukin 6 agents, synthetic vitamin A analogues or metabolites, and estradiol metabolites” (OHIO STATE INNOVATION FOUNDATION, priority 2016, dated 2022):
Entries after “also recorded” stand apart in the source; their conditions may differ.

Columns and labels:
[1] = tested on: EGFR, ERK1/2 and STAT3 phosphorylation; experiment: Effect of receptor targeted inhibitors on OSCC signaling (immunoblot); assay type: cell-based, human; settings: 100 nM
Experimental: The accompanying histogram depicts levels of phosphorylated […], ERK1/2 and STAT3 relative to GAPDH.
Dosing levels were determined by concurrent proliferation and viability studies in conjunction with literature values. The cells in every treatment group were then stimulated for 20 minutes with: vehicle (1 μl ddH2O), 50 ng/ml EGF, 50 ng/ml VEGF, or 50 ng/ml EGF+50 ng/ml VEGF, followed by standard immunoblotting and data normalization relative to GAPDH. […] Immunoblot images were captured (Li-Cor Odyssey imager) and analyzed (Li-Cor Image Studio, Version 4.0) to depict effects on treatment on phosphorylation relative to respective levels of GAPDH.

[2] = tested on: SCC2095sc cells; experiment: OSCC tumor xenografts, tumor volume; assay type: in vivo, nude mice; settings: for inhibition of established OSCC tumor growth / tumor size: discussion of xenograft study
Experimental: One million SCC2095sc cells (suspended in 100 μl Matrigel) were subcutaneously injected in flanks of 6 to 7 week old male nude mice (n=6 per treatment group). By day 14 post injection, all mice had palpable and measurable tumors. Treatment began on day 15. Caliper-based tumor measurements were recorded daily and final tumor volumes calculated via tumor volume V=(length×width)×½. Treatment groups consisted of: 1) control (PBS injections)+blank (no drug) polylactide co-glycolide (PLGA) implants, 2) 2-methoxyestradiol (2-ME) (1 μg/100 μl PBS, b.i.d.)+blank PLGA implant, 3) fenretinide (4-HPR) releasing PLGA implant+PBS injections, 4) tocilizumab (TOC) q.d. (0.3 μg/100 μl PBS)+PLGA blank implant, 5) 2-ME (1 μg/100 μl PBS, b.i.d.)+4-HPR releasing PLGA implant, 6) 2-ME (1 μg/100 μl PBS, b.i.d.)+TOC q.d. (0.3 μg/100 μl PBS)+blank PLGA implant, 7) TOC q.d. (0.3 μg/100 μl PBS)+4-HPR releasing PLGA implant, 8) 2-ME (1 μg/100 μl PBS, b.i.d.)+TOC q.d. (0.3 μg/100 μl PBS)+4-HPR releasing PLGA implant. In previous studies that employed younger mice tumors of varying sizes were disbursed among all treatment groups. Due to the older age of mice >6 weeks and the accompanying cage aggression tumor size distribution was not feasible in these studies. As a result, mean tumor volumes varied appreciably among treatment groups. PLGA implants (trocar placement) and injections were placed in the center of the tumor. Fluid dispersion throughout tumor was noted during injections. At day 28 post OSCC xenograft placement the mice were sacrificed, OSCC tumors along with lung and liver tissues and sera were harvested (for PK and histologic analyses). […] Provided the discrepancy in pretreatment tumor volumes (TOC the lowest, triple treatment second highest with its mean nearly two fold higher than TOC mean), the TOC+2-ME+4-HPR data are especially creditable.
(§1) SCC2095sc cells [10^6 cells suspended in 100 μl Matrigel (Corning Life Sciences, Corning, N.Y.)] were subcutaneously injected in the flanks of 6 week old male nude mice (n=6 per treatment group). Tumor measurements were recorded daily with calipers (greatest length and greatest width) and final tumor volumes calculated via tumor volume V=(length×width)×½. Treatment groups consisted of: 1) control (PBS injections)+blank (no drug) PLGA implants, 2) 2-ME (1 μg/100 μl PBS, b.i.d.)+blank PLGA implant, 3) 4-HPR releasing PLGA implant+PBS injections, 4) TOC q.d. (0.3 μg/100 μl PBS)+PLGA blank implant, 5) 2-ME (1 μg/100 μl PBS, b.i.d.)+4-HPR releasing PLGA implant, 6) 2-ME (1 μg/100 μl PBS, b.i.d.)+TOC q.d. (0.3 μg/100 μl PBS)+blank PLGA implant, 7) TOC q.d. (0.3 μg/100 μl PBS)+4-HPR releasing PLGA implant, 8) 2-ME (1 μg/100 μl PBS, b.i.d.)+TOC q.d. (0.3 μg/100 μl PBS)+4-HPR releasing PLGA implant. By day 14 post injection, all mice had measurable tumors and treatment began on day 15. […] Pretreatment mean tumor volumes therefore varied among treatment groups. PLGA implants (via trocar) and injections were placed in the center of the tumor. At day 28 post OSCC xenograft placement final tumor measurements were obtained, the mice were euthanized and OSCC tumors along with lung, liver and sera were harvested for pharmacokinetic, histologic and IHC analyses (Ki-67, cleaved caspase-3 and involucrin). Image analyses of the nuclear stains (Ki-67 and cleaved caspase 3) were conducted using Image-Pro Plus 6.2 software (Media Cybernetics, Rockville, Md.).

[3] = tested on: HNSCC tumor; settings: 100 μg i.p., scid mice, reference 48; cited from earlier work
[4] = tested on: sIL-6R; experiment: sIL-6R release from OSCC cell lines (ELISA); assay type: cell-based, human; settings: 5 μM 4-HPR, 2.5 μM 2-ME, 1 μg/ml TOC, 24 h
Experimental: FIGS. 5A and 5B show the evaluation of the effects of single and combination treatment of fenretinide (4-HPR, 5 μM), 2-methoxyestradiol (2-ME, 2.5 μM) and the IL-6R inhibitor TOC (1 ug/ml) on STAT3-DNA binding and on release of the stromal and tumor cell activating, trans-signaling molecule, sIL-6R. (A) Treatment effects of STAT3-DNA binding. All cell lines with constitutive pSTAT3 expression (2095sc, JSCC1, JSCC2) were sera deprived for 24 h, followed by an additional 24 hours of treatment in sera-free medium that contained: control (0.1% DMSO), 5 μM 4-HPR, 2.5 μM 2-ME, 1 μg/ml TOC (initial agent concentrations same for single and combinations). As the JSCC3 cells don't constitutively express pSTAT3, these cells underwent 24 h stimulation in base medium supplemented with 10 ng/mL of IL-6 and 5 ng/mL of TGF-α, with or without 4-HPR, 2-ME and TOC followed by harvest. […] (n=13, Kruskal Wallis ANOVA followed by Dunn's Multiple Comparison post hoc test). […] (B) Effects of treatment on cell line release of sIL-6R. All four cell lines released sIL-6R [levels ranges from ˜750 fg/10^6 (JSCC2 cells baseline) to ˜3,000 fg/10^6 cells (stimulated JSCC3 cells, baseline production JSCC3˜2,000 fg/10^6 cells). […]

[5] = cited from earlier work
[6] = 4-HPR release from PLGA implants, tumor and sera levels (UPLC/UV); assay type: in vivo, nude mice; settings: UPLC/UV vs calibration standard
Source text: Determination of 4-HPR tumor levels entailed recording tumor wet mass, addition of internal standard (acitretin) and RIPA lysis buffer, followed by homogenization, addition of acetonitrile and centrifugation. Acetretin percent recovery was compared to a RIPA buffer/acetonitrile extraction control solution spiked with equivalent amount of acetretin and 4-HPR. Sera preparation entailed addition of acetretin and acetonitrile, sonication, followed by centrifugation.
as §1

[7] = tested on: SCC2095sc cells; experiment: IHC of OSCC xenograft tumors (Ki-67, cleaved caspase 3, involucrin); assay type: in vivo, nude mice; settings: qualitative
Source text: IHC images representative of all of the groups are presented. The PLGA implants are visible as a clear cylindrical object in every photomicrograph except the TOC and 2-ME+TOC treatment. To facilitate PLGA implant recognition, arrows have been placed within the implants. Both the Ki-67 and caspase 3 stains are located within the nucleus. Qualitative Ki67 staining assessment was most apparent at the periphery of the tumors in all groups. In contrast to the abundant Ki-67 staining, cleaved caspase 3 was not nearly as prominent.
(Image scale 4× and 10× for smaller and larger photomicrographs, respectively).
SCC2095sc cells [10^6 cells suspended in 100 μl Matrigel (Corning Life Sciences, Corning, N.Y.)] were subcutaneously injected in the flanks of 6 week old male nude mice (n=6 per treatment group). Tumor measurements were recorded daily with calipers (greatest length and greatest width) and final tumor volumes calculated via tumor volume V=(length×width)×½. Treatment groups consisted of: 1) control (PBS injections)+blank (no drug) PLGA implants, 2) 2-ME (1 μg/100 μl PBS, b.i.d.)+blank PLGA implant, 3) 4-HPR releasing PLGA implant+PBS injections, 4) TOC q.d. (0.3 μg/100 μl PBS)+PLGA blank implant, 5) 2-ME (1 μg/100 μl PBS, b.i.d.)+4-HPR releasing PLGA implant, 6) 2-ME (1 μg/100 μl PBS, b.i.d.)+TOC q.d. (0.3 μg/100 μl PBS)+blank PLGA implant, 7) TOC q.d. […]

[8] = tested on: NF-κB subunits p65 and p50; experiment: NF-κB subunit DNA binding and activation in OSCC cells; assay type: cell-based, human; settings: data not shown
Experimental: Twenty four hour sera-deprived cells were treated for an additional 24 hours in sera free media with the following: 1) 0.01% DMSO (vehicle control), 2) 5 μM 4-HPR, 3) 2.5 μM 2-ME, 4) 1 μg/ml tocilizumab (TOC, […]) 5) 5 μM 4-HPR+2.5 μM 2-ME, 6) 5 μM 4-HPR+1 μg/ml TOC, 7) 2.5 μM 2-ME+1 μg/ml TOC, 8) 5 μM 4-HPR+2.5 μM 2-ME+1 μg/ml TOC. Following treatment, conditioned media were collected (ELISAs for IL-6, sIL-6R, TGF-α, VEGF, EGF, R&D Systems, Minneapolis, Minn.) and nuclear and cytosolic lysates (Nuclear Extract Kit, Active Motif, Carlsbad, Calif.) isolated for EMSAs (STAT3, NFκB p50 and p65, TransAM Transcription Factor ELISAs, Active Motif) and cytosolic and nuclear extracts for Westerns (NE-PER Nuclear and Cytoplasmic Extraction Reagents, ThermoFisher Scientific, Waltham Mass.). […]

[9] = In vitro release of 2-ME from PLGA; assay type: physicochemical; settings: two low molecular weight acid-capped PLGA 50/50s, 10% 2-ME loading
Source text: In one embodiment, 2-ME in PLGA can maximize drug loading and facilitate continuous release of the steroid over the correct time scale of release in vivo. Maximizing drug loading can provide more flexibility for dosing and increase the probability of attaining local therapeutic levels. IN one embodiment, the steroid is slowly and continuously released for >1 month in vitro from two different low molecular weight acid-capped PLGA 50/50s at 10% 2-ME loading.
2-ME with/without excipients can be combined with acid-capped PLGA 50/50 (13-24 kD) in acetone and extruded. Drug loading is typically about 10-50%. Drug loading can be determined by HPLC after dissolving implants in acetonitrile. Release kinetics in vitro can be performed in PBS+0.02% Tween 80 (PBST) at 37° C. under perfect sink conditions with HPLC detection.

With `COC(=O)c1ccc2c(c1)NC(=O)/C2=C(\Nc1ccc(N(C)C(=O)CN2CCN(C)CC2)cc1)c1ccccc1` [Vargatef] the “phosphorylated STAT3 despite treatment” value ([1]; JSCC1 and JSCC2 cells) was “high to moderate levels of phosphorylated STAT3 persisted; also recorded: pSTAT3 persisted” and the “phosphorylation at the EGFR, ERK1/2 and STAT3 levels” value ([1]; JSCC3 cells, 1 h pretreatment, EGF/VEGF stimulation) was “reduced phosphorylation; also recorded: blocked STAT3 phosphorylation”.
For “TOC: humanized monoclonal antibody to the IL-6R receptor tocilizumab”, the “mean tumor fold size increase” value ([2]; day 15 to day 28, intratumoral treatment) was 2.13 fold, the “inhibition of established OSCC tumor growth / tumor size” value [2] was “significantly inhibited OSCC tumor growth” and the “increase in tumor volume over 14 days” value ([2]; intratumoral, TOC 0.3 μg q.d., 2-ME 1 μg b.i.d., 4-HPR PLGA implant, paired t test) was “prevented a significant increase in tumor volume”. For the same compound, the HNSCC tumor initiation [3] was “significantly reduced HNSCC tumor initiation”, the established tumor growth [3] was “didn't significantly inhibit established tumor growth” and the sIL-6R release [4] was “significantly reduced”. The sIL-6R release ([4]; listed as tocilizumab) was “significantly inhibited” and the half-life [5] was roughly 19 h.
For `CC1=C(/C=C/C(C)=C/C=C/C(C)=C/C(=O)Nc2ccc(O)cc2)C(C)(C)CCC1=O` [4-oxo-4-HPR, 4-oxo-fenretinide], the “oxidized metabolite in tumor or sera samples” value [6] was “no evidence”.
With `COc1cc2c(cc1O)CC[C@@H]1[C@@H]2CC[C@]2(C)[C@@H](O)CC[C@@H]12` [2-ME, 2-Methoxyestradiol] the “tumor cell invasion and metastasis” value ([2]; 2-ME treatment group) was “Lymphovascular (several mice) and perineural (single mouse) invasion”, the “inhibition of established OSCC tumor growth / tumor size” value [2] was “lack of 2-ME efficacy” and the “involucrin expression (differentiation)” value [7] was “most intense expression”. The half-life [5] was roughly 4 h, the “NF-κB activation in OSCC cells” value [8] was “didn't inhibit” and the “duration of slow continuous release in vitro” value [9] was greater than 1 month.
